Source: ChEMBL document CHEMBL5316350, “Novel Pyrido[2',1':2,3]imidazo[4,5-c]quinoline Derivative Selectively Poisons Leishmania donovani Bisubunit Topoisomerase 1 to Inhibit the Antimony-Resistant Leishmania Infection in Vivo” (J Med Chem, 2023)
The source made the active and inactive calls. The rule behind the calls is not given here.

Key:
Leishmania donovani [1] = assay: Induction of cell cycle arrest in antimony resistant Leishmania donovani BHU575 promastigotes assessed as decrease in accumulation of cells in S phase at 5 uM measured after 24 hrs by PI staining based flow cytometry (reference value: 9.8%); format: functional; set-up: scale not given: the % may be the effect or the level left
[2] = biological target: T1, DNA topoisomerase I (Leishmania donovani (strain BPK282A1)) (UniProt E9BRC0); assay: Inhibition of Leishmania donovani recombinant Top1 assessed as relaxation of supercoiled pBluescript SK(+) DNA at 5 uM incubated for 30 mins by agarose gel electrophoresis analysis relative to control
T1 sequence (whole entry): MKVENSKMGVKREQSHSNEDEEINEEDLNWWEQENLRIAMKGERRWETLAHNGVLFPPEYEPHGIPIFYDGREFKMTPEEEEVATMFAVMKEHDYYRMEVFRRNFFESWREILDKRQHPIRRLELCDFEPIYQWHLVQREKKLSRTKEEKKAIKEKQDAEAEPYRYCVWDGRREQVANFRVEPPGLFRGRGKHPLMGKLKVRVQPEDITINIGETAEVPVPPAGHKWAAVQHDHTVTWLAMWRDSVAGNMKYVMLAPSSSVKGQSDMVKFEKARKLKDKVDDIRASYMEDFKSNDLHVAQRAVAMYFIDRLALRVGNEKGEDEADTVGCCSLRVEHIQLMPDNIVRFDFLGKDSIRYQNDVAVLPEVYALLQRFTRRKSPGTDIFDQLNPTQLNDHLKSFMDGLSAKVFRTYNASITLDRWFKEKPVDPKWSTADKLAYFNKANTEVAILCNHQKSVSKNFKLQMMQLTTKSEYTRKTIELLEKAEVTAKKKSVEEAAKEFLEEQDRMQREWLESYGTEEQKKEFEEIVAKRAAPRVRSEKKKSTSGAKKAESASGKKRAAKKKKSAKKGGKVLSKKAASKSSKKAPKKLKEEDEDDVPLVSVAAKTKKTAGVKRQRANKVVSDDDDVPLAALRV

[3] = Toxicity in BALB/c mouse infected with Antimony resistant Leishmania donovani BHU575 promastigotes assessed as change in body weight treated after 3 weeks of infection at 5 to 10 mg/kg, ip twice a week for 3 weeks; format: organism-based; conditions: in vivo, dose 5-10 mg/kg
Leishmania donovani [4] = assay: Induction of cell cycle arrest in Leishmania donovani Ag83 promastigotes assessed as decrease in accumulation of cells in G2/M phase at 5 uM measured after 12 hrs by PI staining based flow cytometry (reference value: 15.1 %); format: functional; set-up: scale not given: the % may be the effect or the level left
[5] = biological target: T1, DNA topoisomerase I (Leishmania donovani (strain BPK282A1)); assay: Inhibition of recombinant Top1 in Leishmania donovani Ag83 whole cell extract preincubated with compound for 5 mins followed by plasmid DNA addition at 5 to 20 uM measured after 30 mins; conditions: dose 5-20 µM
Leishmania donovani [6] = assay: (§1) Antileishmanial activity against Leishmania donovani Ag83 promastigotes infected in BALB/c mouse model of visceral leishmaniasis assessed as fold change in T-helper type 1 immunological evoke response in splenocytes by measuring increased IFN-gamma cytokine level treated after 3 weeks of infection at 5 mg/kg, ip twice a week for 3 weeks by RT-PCR analysis; format: functional
Leishmania donovani [7] = assay: Induction of cell cycle arrest in Leishmania donovani Ag83 promastigotes assessed as decrease in accumulation of cells in S phase at 5 uM measured after 12 hrs by PI staining based flow cytometry (reference value: 18.1%); format: functional; set-up: scale not given: the % may be the effect or the level left
Leishmania donovani [8] = assay: Induction of apoptosis in Leishmania donovani Ag83 promastigotes assessed as increase in apoptotic cells measured at 5 uM after 1.5 hrs by Annexin V-FITC/PI staining based flow cytometric analysis; format: functional, organism-based
Leishmania donovani [9] = assay: as §1, with “decrease in TGF-beta” for “increased IFN-gamma cytokine”, “5 to 10” for “5”; format: functional; conditions: dose 5-10 mg/kg
Leishmania donovani [10] = assay: Antileishmanial activity against Leishmania donovani Ag83 promastigotes infected in BALB/c mouse assessed as reduction of macrophage at 1 to 10 uM infection by propidium iodide staining analysis; format: functional, organism-based; conditions: dose 1-10 µM, time 72-96 hrs, TDE = time-dependent effect
Leishmania donovani [11] = assay: Induction of apoptosis in […] Leishmania donovani Ag83 promastigotes assessed as DNA break accumulation measured at 5 uM after 15 mins by TUNEL staining based assay; format: functional, organism-based
Leishmania donovani [12] = assay: as §1, with “decrease in IL-10” for “increased IFN-gamma cytokine”, “5 to 10” for “5”; format: functional; conditions: dose 5-10 mg/kg
Leishmania donovani [13] = assay: Antileishmanial activity against antimony resistant Leishmania donovani BHU575 promastigotes infected in BALB/c mouse assessed as reduction of amastigote burden by measuring parasite count in spleen treated after 3 weeks of infection at 5 to 10 mg/kg, ip twice a week for 3 weeks by qPCR based kineto-plastid DNA; format: functional, organism-based; conditions: dose 5-10 mg/kg
Leishmania donovani [14] = assay: (§2) Antileishmanial activity against Leishmania donovani Ag83 promastigotes infected in BALB/c mouse assessed as reduction of amastigote burden in spleen treated after 3 weeks of infection at 5 to 10 mg/kg, ip twice a week for 3 weeks by Giemsa staining stamp-smear based limiting dilution assay; format: functional, organism-based; conditions: dose 5-10 mg/kg
Leishmania donovani [15] = assay: as §2, with “against antimony resistant” for “against”, “BHU575” for “Ag83”, “liver” for “spleen”; format: functional, organism-based; conditions: dose 5-10 mg/kg
[16] = biological target: T1, DNA topoisomerase I (Leishmania donovani (strain BPK282A1)); assay: Binding affinity to Leishmania donovani recombinant topoisomerase I assessed as stabilization of cleavage complex at 2.5 to 25 uM measured after 30 mins; conditions: dose 2.5-25 µM
[17] = biological target: T1, DNA topoisomerase I (Leishmania donovani (strain BPK282A1)); assay: Inhibition of recombinant Top1 in Leishmania donovani Ag83 whole cell extract assessed as relaxation of supercoiled pBluescript SK(+) DNA at 10 uM incubated for 30 mins by agarose gel electrophoresis analysis relative to control
[18] = Selectivity index ratio of EC50 for BALB/c mouse macrophage to ratio of EC50 for antileishmanial activity against Leishmania amastigotes; format: toxicity; conditions: mouse macrophages, read-out: Ratio EC50
Leishmania donovani [19] = assay: Induction of apoptosis in Leishmania donovani Ag83 promastigotes assessed as late apoptotic cells measured at 5 uM after 24 hrs by Annexin V-FITC/PI staining based flow cytometric analysis (reference value: 0.1%); format: functional
Leishmania donovani [20] = assay: Antileishmanial activity in Leishmania donovani Ag83 promastigotes assessed as persistent Top1cc-induced DNA breakdown by measuring TUNEL positive cells treated for 6 to 12 hrs followed by compound removal measured after 6 to 12 hrs by confocal microscopic analysis relative to camptothecin; format: functional, organism-based; conditions: time 6-12 hrs
Leishmania donovani [21] = assay: as §1, with “increase in TNF alpha” for “increased IFN-gamma”, “5 to 10” for “5”; format: functional; conditions: dose 5-10 mg/kg

With `COc1cc(-c2nc3ccccc3c3nc4ccccn4c23)cc(OC)c1OC` the Activity (Leishmania donovani [1]) was 22.3%, the inhibition [2] was 85% and the Activity [3] was “Non-Toxic”. The Activity (Leishmania donovani [4]) was 14.5%, the inhibition [5] was “inactive” and the “fold change (FC)” value (Leishmania donovani [6]) was 4. The Activity (Leishmania donovani [7]) was 43.1%, the Activity (Leishmania donovani [8]) was “Active” and the “fold change (FC)” value (Leishmania donovani [9]) was 2. For the same compound, the Activity (Leishmania donovani [10]) was “Tde”, the Activity (Leishmania donovani [11]) was “inactive” and the “fold change (FC)” value (Leishmania donovani [12]) was 2. The Activity (Leishmania donovani [13]) was “Active”, the Activity (Leishmania donovani [14]) was “Active” and the Activity (Leishmania donovani [15]) was “Active”. The Activity [16] was “Active”, the inhibition [17] was 85% and the selectivity ratio [18] was 9.25. The Activity (Leishmania donovani [19]) was 70.6%, the Activity (Leishmania donovani [20]) was “Active” and the “fold change (FC)” value (Leishmania donovani [21]) was 5.
